melting point | SMILES
233 to 235 °C | Cc1cccc(C(=O)NC(C)C)c1NC(=O)c1cc(C(F)(F)F)nn1-c1ncccc1C(F)(F)F [Example 3, N-[2-Methyl-6-[[(1-methylethyl)amino]carbonyl]phenyl]-3-(trifluoromethyl)-1-[3-(trifluoromethyl)-2-pyridinyl]-1H-pyrazole-5-carboxamide]
200 to 204 °C | CCn1nc(C(F)(F)F)cc1NC(=O)c1c(C)cccc1C(=O)NC(C)C [Example 1, 2-[1-Ethyl-3-trifluoromethylpyrazol-5-ylcarbamoyl]-3-methyl-N-(1-methylethyl)benzamide]
215 to 217 °C | CNC(=O)c1cc(Cl)cc(C)c1NC(=O)c1cc(OCC(F)(F)F)nn1-c1ncccc1Cl
205 to 207 °C | CNC(=O)c1cc(Cl)cc(C)c1NC(=O)c1cc(Cl)nn1-c1ncccc1Cl
